Patent publication US11369644B2, “Microbial consortia” (priority 2018, dated 2022)
“And” between values parts separate entries of the source, which are not always exact repeats. Equal entries are not always repeated. Positions of bridges follow the written chain, without caps; N, C: chain ends. Non-standard residues stand in square brackets, D forms with d. Residues, ends and D or L forms follow the SMILES beside them. *: point of attachment. Ileψ(thiazoline)Cys = CC[C@H](C)[C@H](N)C1=N[C@H](C(=O)*)CS1; dOrn = NCCC[C@@H](N)C(=O)O

What was measured:
Ca. glabrata DSM 11226 = experiment: Disk diffusion test for antimicrobial activity (DIN 58940-3) against Ca. glabrata; format: cell-based; settings: test strain 2 (Ca. glabrata DSM 11226); positive control 2 μg Cycloheximide/disc; 24 h at 25° C.; disk diameter = 6 mm
Protocol: (§1) Generally, all samples were provided in lyophilized from. Subsets of each sample were suspended in solvent for analysis by LC/MS and GC/MS. Following these analyses, further subsets of each sample were extracted and fractionated (to enrich the medium polar range). Fractions were analyzed by LC/MS. Cell extracts were analyzed in a bioassay against Candida sp. and Rhodotorula sp. in a disk diffusion assay at 3 concentrations.
(§2) Preparative Cell Extraction. Lyophilized cells were extracted prior to fractionation/bio assay to remove cell wall debris. The cells were adjusted to a final concentration of 50 mg/mL (Table 9) and sonicated for 15 min followed by vortexing for 2 min and a second sonication step of 15 min. Afterwards, 10 mL of the suspension were transferred to another vial an centrifuged at 10,000 RCF for 5 min. The supernatant was transferred to a new vial.
(§3) Disk diffusion test. Disk diffusion tests for antimicrobial activity were prepared according to DIN 58940-3 (DIN-Taschenbuch 222, 5. Edition) using the strains 00549fBCD000864 (Rho. glutinis, test strain #1) DSM 70821 and 00539fDSM011226 (Ca. glabrata, test strain #2) DSM 11226. […]
(§4) The test strains were diluted to 1.000.000 cfu/mL using saline solution. […] After 24 h the zone of inhibition was measured and recorded in Table 10 below.

Rho. glutinis DSM 70821 = experiment: Disk diffusion test for antimicrobial activity (DIN 58940-3) against Rho. glutinis; format: cell-based; settings: test strain 1 (Rho. glutinis DSM 70821); positive control 2 μg Cycloheximide/disc; 24 h at 25° C.; disk diameter = 6 mm
Protocol: as §1, §2, §3, §4

F. prausnitzii ST38 = experiment: Antibiotic resistance by broth solution method (MIC), F. prausnitzii ST38; format: cell-based, Faecalibacterium prausnitzii
Protocol: (§5) Antibiotic resistance in this example was determined using the broth solution method.
(§6) Antibiotic resistance in this example was determined using the broth solution method. This procedure involved preparing two-fold dilutions of antibiotics (e.g., 1, 2, 4, 8, and 16 μg/mL) in a liquid growth medium dispensed in test tubes. The antibiotic-containing tubes were inoculated with a standardized bacterial suspension of about 1-5×10^5 CFU/mL. Following overnight incubation at 37° C., the tubes were examined for visible bacterial growth as evidenced by turbidity. The lowest concentration of antibiotic that prevented growth represented the minimal inhibitory concentration (MIC).

FP-ST38 = experiment: Kirby-Bauer disk diffusion antibiotic susceptibility testing of FP-ST38; format: cell-based, Faecalibacterium prausnitzii; settings: FP-ST38 susceptible
Protocol: Antibiotic susceptibility was determined by standard Kirby-Bauer disk diffusion testing. FP-ST38 is susceptible to the following antibiotics (cm=zone of inhibition): amoxicillin/clavulanic acid (2.5 cm), ceftriaxone (2 cm), tetracycline (5 cm), amikacin (2 cm), and bacitracin (3.4 cm).

L. crispatus ST100 = experiment: Antibiotic resistance by broth solution method (MIC), L. crispatus ST100; format: cell-based, Lactobacillus crispatus
Protocol: as §5, §6

LC-ST100 = experiment: Kirby-Bauer disk diffusion antibiotic susceptibility testing of LC-ST100; format: cell-based, Lactobacillus crispatus; settings: LC-ST100 susceptible
Protocol: Antibiotic susceptibility was determined by standard Kirby-Bauer disk diffusion testing. LC-ST100 is susceptible to the following antibiotics (cm=zone of inhibition): azithromycin (3.5 cm), amoxicillin/clavulanic acid (5 cm), clindamycin (4 cm), vancomycin (3.8 cm), ceftriaxone (3.5 cm), tetracycline (4.2 cm), ampicillin (4 cm), bacitracin (2.5 cm).

A. muciniphila ST7 = experiment: Antibiotic resistance by broth solution method (MIC), A. muciniphila ST7; format: cell-based, Akkermansia muciniphila
Protocol: as §5, §6

AM-ST7 = experiment: Kirby-Bauer disk diffusion antibiotic susceptibility testing of AM-ST7; format: cell-based, Akkermansia muciniphila; settings: AM-ST7 susceptible
Protocol: Antibiotic susceptibility was then determined by standard Kirby-Bauer disk diffusion testing. AM-ST7 was susceptible to the following antibiotics (cm=zone of inhibition): azithromycin (2.5 cm), amoxicillin/clavulanic acid (4 cm), vancomycin (1.5 cm), tetracycline (3 cm), bacitracin (2 cm), and levofloxacin (1.2 cm).

C[C@@H]1C[C@@H]([C@H](O)CC2CC(=O)NC(=O)C2)C(=O)[C@@H](C)C1 [Cycloheximide]
Diameter inhibition zone [mm] Pos. Control (Ca. glabrata DSM 11226): 11 mm and 10 mm and 9 mm
Diameter inhibition zone [mm] Pos. Control (Rho. glutinis DSM 70821): 14 mm and 13 mm

NCC[C@H](O)C(=O)N[C@@H]1C[C@H](N)[C@@H](O[C@H]2O[C@H](CN)[C@@H](O)[C@H](O)[C@H]2O)[C@H](O)[C@H]1O[C@H]1O[C@H](CO)[C@@H](O)[C@H](N)[C@H]1O [amikacin]
antibiotic susceptibility (F. prausnitzii ST38): susceptible
zone of inhibition (FP-ST38): 2 cm

CC1(C)S[C@@H]2[C@H](NC(=O)[C@H](N)c3ccccc3)C(=O)N2[C@H]1C(=O)O [ampicillin]
antibiotic susceptibility (L. crispatus ST100): susceptible
zone of inhibition (LC-ST100): 4 cm

CC[C@H]1OC(=O)[C@H](C)[C@@H](O[C@H]2C[C@@](C)(OC)[C@@H](O)[C@H](C)O2)[C@H](C)[C@@H](O[C@@H]2O[C@H](C)C[C@H](N(C)C)[C@H]2O)[C@](C)(O)C[C@@H](C)CN(C)[C@H](C)[C@@H](O)[C@]1(C)O [azithromycin]
antibiotic susceptibility (F. prausnitzii ST38): susceptible
antibiotic susceptibility (A. muciniphila ST7): susceptible
antibiotic susceptibility (L. crispatus ST100): susceptible
zone of inhibition (AM-ST7): 2.5 cm
zone of inhibition (LC-ST100): 3.5 cm

CC[C@H](C)[C@H](N)C1=N[C@H](C(=O)N[C@@H](CC(C)C)C(=O)N[C@H](CCC(=O)O)C(=O)N[C@H](C(=O)N[C@H]2CCCCNC(=O)[C@H](CC(N)=O)NC(=O)[C@@H](CC(=O)O)NC(=O)[C@H](Cc3cnc[nH]3)NC(=O)[C@@H](Cc3ccccc3)NC(=O)[C@H]([C@@H](C)CC)NC(=O)[C@@H](CCCN)NC2=O)[C@@H](C)CC)CS1 [bacitracin] ({Ileψ(thiazoline)Cys}-L[dE]IK[dOrn]I[dF]H[dD]N; lactam 4-C)
zone of inhibition (AM-ST7): 2 cm
zone of inhibition (FP-ST38): 3.4 cm
zone of inhibition (LC-ST100): 2.5 cm

CO/N=C(\C(=O)N[C@@H]1C(=O)N2C(C(=O)O)=C(CSc3nc(=O)c(=O)[nH]n3C)CS[C@H]12)c1csc(N)n1 [ceftriaxone]
zone of inhibition (FP-ST38): 2 cm
zone of inhibition (LC-ST100): 3.5 cm

CCC[C@@H]1C[C@@H](C(=O)N[C@@H]([C@H]2O[C@H](SC)[C@H](O)[C@@H](O)[C@H]2O)[C@H](C)Cl)N(C)C1 [clindamycin]
zone of inhibition (LC-ST100): 4 cm

C[C@H]1COc2c(N3CCN(C)CC3)c(F)cc3c(=O)c(C(=O)O)cn1c23 [levofloxacin]
zone of inhibition (AM-ST7): 1.2 cm

CN(C)[C@@H]1C(O)=C(C(N)=O)C(=O)[C@@]2(O)C(O)=C3C(=O)c4c(O)cccc4[C@@](C)(O)[C@H]3C[C@@H]12 [tetracycline]
zone of inhibition (AM-ST7): 3 cm
zone of inhibition (FP-ST38): 5 cm
zone of inhibition (LC-ST100): 4.2 cm

CN[C@H](CC(C)C)C(=O)N[C@H]1C(=O)N[C@@H](CC(N)=O)C(=O)N[C@H]2C(=O)N[C@H]3C(=O)N[C@H](C(=O)N[C@H](C(=O)O)c4cc(O)cc(O)c4-c4cc3ccc4O)[C@H](O)c3ccc(c(Cl)c3)Oc3cc2cc(c3O[C@@H]2O[C@H](CO)[C@@H](O)[C@H](O)[C@H]2O[C@H]2C[C@](C)(N)[C@H](O)[C@H](C)O2)Oc2ccc(cc2Cl)[C@H]1O [vancomycin]
antibiotic susceptibility (F. prausnitzii ST38): susceptible
antibiotic susceptibility (L. crispatus ST100): susceptible
zone of inhibition (AM-ST7): 1.5 cm
zone of inhibition (LC-ST100): 3.8 cm

amoxicillin/clavulanic acid
zone of inhibition (AM-ST7): 4 cm
zone of inhibition (FP-ST38): 2.5 cm
zone of inhibition (LC-ST100): 5 cm
